Where a name gives a salt, the structure may show the parent alone. Read-outs that look alike come from different tables or passages of the source.

These results are taken from patent US20050169994A1 (priority 2003, published 2005).

The conditions of series [1]: R and S isomers, systemic circulation; cited from earlier work.
The conditions of series [2]: cited from earlier work.
Series [3] in a line: pH-solubility profile for carvedilol. Conditions: aqueous medium.
The conditions of series [4]: pH 7.1.
A short description of series [5]: Solubility in water at 25° C. over time, with pH of filtered solution. From the text:
Aliquots were taken out at various time-point, filtered through 0.45 μm Acrodisc GHP filter.

Consider `COc1ccccc1OCCNCC(O)COc1cccc2[nH]c3ccccc3c12` (stereo not drawn) [Carvedilol], for which the alpha elimination phase result in series [1] is reported as “about 1.5 hours”. Further, the values for the solubility in series [2] (above a pH of 9.0) and in series [4] were < 1 µg/mL and 20 to 30 µg/mL, respectively. For the same compound, the saturation solubility entry is “about 100 μg/mL” in series [2] (pH=5, room temperature) and “about 23 μg/mL” in series [2] (pH=7, room temperature). In addition, the solubility (thermodynamic) in series [3] is ≤ 100 µg/mL.

On to `COc1ccccc1OCCNCC(O)COc1cccc2[nH]c3ccccc3c12` (stereo not drawn) [hydrochloride salt of carvedilol, carvedilol hydrochloride], for which, in series [2] (salt generated in situ in acidic medium simulating gastric fluid), the “solubility in acidic medium” value was “less soluble”.

On to `COc1ccccc1OCCNCC(O)COc1cccc2[nH]c3ccccc3c12` (stereo not drawn) [HBr salt, carvedilol hydrobromide], for which the “aqueous solubility compared with free base” value in series [5] is recorded as “much better aqueous solubility than the free base”.

For `COc1ccccc1OCCNCC(O)COc1cccc2[nH]c3ccccc3c12.O=P(O)(O)O` (stereo not drawn) [Phosphate salt, Carvedilol dihydrogen phosphate], the “aqueous solubility compared with free base” value in series [5] (in words) was “much better aqueous solubility than the free base”.

As a reminder, the solubility is how much of the substance goes into solution per volume. By solubility (thermodynamic) is commonly meant the concentration in solution at equilibrium with solid.
